Laboratory results published in patent US20070161585A1, “Immunopotentiator and method for enhancing immunoactivity using the same” (priority 2003, published 2007).

Tests used:
[1] = test system: inflammatory cytokines in the serum of the mouse; experiment: Serum inflammatory cytokines by ELISA after simultaneous administration of Gm^6ATC sequence and non-methylated CpG sequence to mice; type: in vivo; settings: 5 nmol CpG-ODN1668 alone or mixed with equimolar second ODN, 400 μl saline, 2 hours later, mean (n=4)
Method: Accordingly, the Gm^6ATC sequence and CpG-ODN1668 containing the non-methylated sequence were simultaneously administered to a mouse to confirm an effect of inducting inflammatory cytokines. Regarding the doses of Gm^6ATC, GATC-dA and CpG-ODN1668, 5 nmol of CpG-ODN1668 was mixed with an equimolar amount of Gm^6ATC or GATC-dA, and the mixture was dissolved in 400 μl of a physiological saline solution. The resulting solution was administered to a mouse. Two hours later, the inflammatory cytokines in the serum of the mouse were measured by ELISA to confirm induction amounts.
The results shown in FIGS. 4 to 6 are expressed in terms of a mean value±standard deviation (n=4). In the graphs, one asterisk indicates “P<0.05”, two asterisks “P<0.01” and three asterisks “P<0.005”.

[2] = test system: inflammatory cytokines (IL-6, IL-12 and TNF-α) in the serum; experiment: Serum inflammatory cytokines by ELISA after single intraperitoneal administration of ODN to mice; type: in vivo; settings: Balb/c mouse; for IL-6 concentration in the serum / IL-12 concentration in the serum / TNF-α concentration in the serum: 10 nmol ODN in 400 μl saline, 2 hours later, mean; for Induction of inflammatory cytokines (in words): 10 nmol ODN, serum 2 hours later
Method: 10 nmol of each of GATC-dA (sequence containing a GATC sequence), GATC-m^6A (sequence containing a Gm^6ATC sequence), CpG-ODN1668 (sequence containing a non-methylated CpG sequence) and GpC-ODN1720 (sequence containing a […]) shown in Table 1 was collected, and dissolved in 400 μl of a physiological saline solution. The resulting solution was intraperitoneally administered to a Balb/c mouse (male, 6 weeks old; Sankyo Labo-Service). Two hours later, concentrations of inflammatory cytokines (IL-6, IL-12 and TNF-α) in the serum were measured by an enzyme-linked immunosorbent assay (ELISA; AN'ALIZA, Genzyme TECHNE corp.).
Two hours after the administration, the blood was collected from the heart of the mouse, and allowed to stand overnight at 4° C. The serum was collected therefrom by centrifugation (20,000 g, 20 minutes, 4° C.).
By the way, the results shown in FIGS. 1 to 3 are expressed in terms of a mean value±standard deviation. In the graphs, two asterisks indicate “P<0.01”, and three asterisks “P<0.005 (n=3 (IL-12), 4 (IL-6, TNF-α)))”.

Substance | IL-6 concentration in the serum [1] [pg/mL] | IL-12 concentration in the serum [1] [pg/mL] | TNF-α concentration in the serum [1] [pg/mL] | IL-6 concentration in the serum [2] [pg/mL] | IL-12 concentration in the serum [2] [pg/mL] | TNF-α concentration in the serum [2] [pg/mL] | Induction of inflammatory cytokines (in words) [2]
CpG-ODN1668: phosphothioate-stabilized oligonucleotide, non-methylated CpG motif, TCCATGACGTTCCTGATGCT (DNA TCCATGACGTTCCTGATGCT; phosphorothioate backbone, chemistry not fully specified) | 530 | 730 | 760 | 2100 | 1000 | 1500 | very strong inflammatory cytokines were induced
GATC-dA: phosphothioate-stabilized oligonucleotide, non-m^6A motif, TCCATGATCTTCCTGATGCT (DNA TCCATGATCTTCCTGATGCT; phosphorothioate backbone, chemistry not fully specified) | – | – | – | 14 | 48 | 92 | –
GpC-ODN1720: phosphothioate-stabilized oligonucleotide, non CpG motif, CC ATG AGC TTC CTG ATG CT (DNA CCATGAGCTTCCTGATGCT; phosphorothioate backbone, chemistry not fully specified) | – | – | – | 28 | 33 | 47 | little induced
